Results taken from article PMC11110727, “Exploiting thiol-functionalized benzosiloxaboroles for achieving diverse substitution patterns – synthesis, characterization and biological evaluation of promising antibacterial agents” (RSC Medicinal Chemistry, 2024).
Values after ≈ are worked out from the molar mass of the structure shown. Like-named read-outs stand apart in the source and are kept apart here.

What was measured:
P. mirabilis ATCC 12453 = test: Antibacterial activity: MIC/MBC, MIC with PAβN, disc-diffusion; assay type: cell-based, Proteus mirabilis; conditions: Proteus mirabilis, ATCC12453
Method in brief: (§1)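 Strains were subcultured twice on TSA at 30 °C. They were then tested by disc diffusion (EUCAST/CLSI), by CLSI broth-microdilution MIC in Mueller–Hinton II broth and by CLSI MBC, with compounds in DMSO.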

C. krusei ATCC 6258 = test: Antifungal activity: MIC/MFC, disc-diffusion; assay type: cell-based; conditions: for MIC: Pichia kudriavzevii, ATCC6258; for diameter of inhibition zone: C. krusei ATCC 6258, (-) = zone not observed, paper discs 9 mm
Method in brief: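 Yeast subcultured on Sabouraud dextrose agar 24–48 h at 30 °C before testing. Disc-diffusion and MIC per EUCAST and CLSI recommendations; MFC per CLSI. Compounds dissolved in DMSO.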

E. coli ATCC 25922 = test: Antibacterial activity: MIC/MBC, MIC with PAβN, disc-diffusion; assay type: cell-based, Escherichia coli; conditions: for MIC: Escherichia coli, ATCC25922
Method in brief: as §1

K. pneumoniae ATCC 13883 = test: as above; assay type: cell-based, Klebsiella pneumoniae; conditions: Klebsiella pneumoniae, ATCC13883
Method in brief: as §1

A. baumannii ATCC 19606 = test: as above; assay type: cell-based, Acinetobacter baumannii; conditions: Acinetobacter baumannii, ATCC19606
Method in brief: as §1

[1] = system: S. aureus ATCC 43300 MRSA; test: Antibacterial activity: MIC/MBC determination and disc-diffusion; assay type: cell-based; conditions: Staphylococcus aureus
Method in brief: (§2)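 Method: disc diffusion + MIC per EUCAST/CLSI; MBC/MFC per CLSI. Bacteria passaged twice on TSA, yeasts on Sabouraud agar, 24–48 h at 30 °C. Test compounds in DMSO.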

E. faecalis ATCC 29212 = test: as above; assay type: cell-based; conditions: Enterococcus faecalis, ATCC29212
Method in brief: as §2

[2] = system: S. epidermidis ATCC 12228; test: as above; assay type: cell-based; conditions: Staphylococcus epidermidis, ATCC12228
Method in brief: as §2

E. faecium ATCC 6057 = test: as above; assay type: cell-based; conditions: Enterococcus faecium, ATCC6057
Method in brief: as §2

[3] = system: S. maltophilia ATCC 13637; test: Antibacterial activity: MIC/MBC, MIC with PAβN, disc-diffusion; assay type: cell-based, Stenotrophomonas maltophilia; conditions: Stenotrophomonas maltophilia, ATCC13637
Method in brief: as §1

[4] = P. mirabilis ATCC 12453, read-out: MIC
[5] = E. coli ATCC 25922, read-out: MIC
[6] = K. pneumoniae ATCC 13883, read-out: MIC
[7] = A. baumannii ATCC 19606, read-out: MIC
[8] = S. aureus ATCC 43300 MRSA, read-out: MBC (first MBC where Eagle effect)
[9] = S. aureus ATCC 43300 MRSA, read-out: MIC
[10] = E. faecalis ATCC 29212, read-out: MIC
[11] = S. epidermidis ATCC 12228, read-out: MIC
[12] = E. faecium ATCC 6057, read-out: MIC
[13] = S. maltophilia ATCC 13637, read-out: MIC

SMILES | MIC (P. mirabilis ATCC 12453; [4]) | MIC (C. krusei ATCC 6258; read-out: MIC) | MIC (E. coli ATCC 25922; [5]) | MIC (K. pneumoniae ATCC 13883; [6]) | MIC (A. baumannii ATCC 19606; [7]) | MBC [1, 8] | MIC [1, 9] | MIC (E. faecalis ATCC 29212; [10]) | MIC [2, 11] | MIC (E. faecium ATCC 6057; [12]) | MIC [3, 13] | diameter of inhibition zone (C. krusei ATCC 6258) | MBC (E. faecalis ATCC 29212; E. faecalis ATCC 29212) | MBC ([2]; S. epidermidis ATCC 12228) | also measured
C[Si]1(C)OB(O)c2ccc(SCCS(=O)(=O)c3ccccc3)c(F)c21 [Compound 21, 7-Fluoro-1,1-dimethyl-6-((2-(phenylsulfonyl)ethyl)thio)benzo[c][1,2,5]oxasilaborol-3(1H)-ol] | > 400 µg/mL | > 400 µg/mL | > 400 µg/mL | > 400 µg/mL | > 400 µg/mL | 400 µg/mL (≈ 1010 µM) | 12.5 µg/mL (≈ 31.5 µM) | 200 µg/mL (≈ 505 µM) | 25 µg/mL (≈ 63.1 µM) | 200 µg/mL (≈ 505 µM) | > 400 µg/mL |  |  |  | diameter of inhibition zone (E. coli ATCC 25922; E. coli ATCC 25922, (-) = zone not observed, paper discs 9 mm): 11 mm; -fold reduction of MIC in the presence of PAβN (E. coli ATCC 25922; E. coli ATCC 25922, PAβN 20 μg mL^−1, MHB + 1 mM MgSO4): 16 -fold
CC(=O)CSc1ccc2c(c1F)[Si](C)(C)OB2O [Compound 22, 1-((7-Fluoro-3-hydroxy-1,1-dimethyl-1,3-dihydrobenzo[c][1,2,5]oxasilaborol-6-yl)thio)propan-2-one] | > 400 µg/mL | 200 µg/mL (≈ 704 µM) | > 400 µg/mL | > 400 µg/mL | > 400 µg/mL | 200 µg/mL (≈ 704 µM) | 6.25 µg/mL (≈ 22 µM) | 25 µg/mL (≈ 88 µM) | 6.25 µg/mL (≈ 22 µM) | 25 µg/mL (≈ 88 µM) | > 400 µg/mL | 12 mm | 400 µg/mL (≈ 1410 µM) | 12.5 µg/mL (≈ 44 µM) | 
C[Si]1(C)OB(O)c2ccc(SCC(=O)c3ccccc3)c(F)c21 [Compound 23, 2-((7-Fluoro-3-hydroxy-1,1-dimethyl-1,3-dihydrobenzo[c][1,2,5]oxasilaborol-6-yl)thio)-1-phenylethan-1-one] | > 400 µg/mL | 200 µg/mL (≈ 578 µM) | > 400 µg/mL | > 400 µg/mL | > 400 µg/mL | 25 µg/mL (≈ 72.2 µM) | 3.12 µg/mL (≈ 9.01 µM) | 50 µg/mL (≈ 144 µM) | 12.5 µg/mL (≈ 36.1 µM) | 50 µg/mL (≈ 144 µM) | > 400 µg/mL | 12 mm | 200 µg/mL (≈ 578 µM) | 50 µg/mL (≈ 144 µM) | MBC ([1]; S. aureus ATCC 43300 MRSA, value after the slash, read-out: second MBC (Eagle effect)): 100 µg/mL (≈ 289 µM)
CCOP(=O)(OCC)Sc1c(F)cc2c(c1F)[Si](C)(C)OB2O [Compound 24, S-(5,7-Difluoro-3-hydroxy-1,1-dimethyl-1,3-dihydrobenzo[c][1,2,5]oxasilaborol-6-yl) O,O-diethyl phosphorothioate] |  |  |  |  |  |  |  |  |  |  |  |  |  |  | MIC (P. mirabilis ATCC 12453): > 400 µg/mL; MIC (C. krusei ATCC 6258): > 400 µg/mL; MIC (E. coli ATCC 25922): > 400 µg/mL; MIC (K. pneumoniae ATCC 13883): > 400 µg/mL; MIC (A. baumannii ATCC 19606): > 400 µg/mL; MIC [1]: 12.5 µg/mL (≈ 32.7 µM); MBC ([1]; read-out: MBC (first MBC where Eagle effect)): > 400 µg/mL; MIC (E. faecalis ATCC 29212): > 400 µg/mL; MIC [2]: 100 µg/mL (≈ 262 µM); MIC (E. faecium ATCC 6057): 400 µg/mL (≈ 1050 µM); MIC [3]: > 400 µg/mL
C[Si]1(C)OB(O)c2ccc(SC(=O)c3ccc(C(F)(F)F)cc3)c(F)c21 [Compound 25, S-(7-Fluoro-3-hydroxy-1,1-dimethyl-1,3-dihydrobenzo[c][1,2,5]oxasilaborol-6-yl) 4-(trifluoromethyl)benzothioate] | > 50 µg/mL | > 50 µg/mL | > 50 µg/mL | > 50 µg/mL | > 50 µg/mL | 25 µg/mL (≈ 62.5 µM) | 12.5 µg/mL (≈ 31.2 µM) | 12.5 µg/mL (≈ 31.2 µM) | 3.12 µg/mL (≈ 7.8 µM) | 12.5 µg/mL (≈ 31.2 µM) | > 50 µg/mL |  | 25 µg/mL (≈ 62.5 µM) | 25 µg/mL (≈ 62.5 µM) | MBC (E. faecium ATCC 6057; E. faecium ATCC 6057): > 50 µg/mL
C[Si]1(C)OB(O)c2cc(F)c(S(=O)(=O)Cl)c(F)c21 [Compound 26, 5,7-Difluoro-3-hydroxy-1,1-dimethyl-1,3-dihydrobenzo[c][1,2,5]oxasilaborole-6-sulfonyl chloride] | > 400 µg/mL | > 400 µg/mL | > 400 µg/mL | > 400 µg/mL | > 400 µg/mL |  | 200 µg/mL | 200 µg/mL | 200 µg/mL | 100 µg/mL | > 400 µg/mL |  |  |  | 
